The source of these data is patent publication US12617773B2, “Azetidin-3-ylmethanol derivatives as CCR6 receptor modulators” (Idorsia Pharmaceuticals Ltd, priority 2020, dated 2026).

pIC50: −log10 of the molar value.

The target in the test is T1, human CCR6 (Homo sapiens, UniProt P51684).
T1 construct: expressed in transfected cells; host or cells: HEK-293
T1 sequence (P51684 1-374): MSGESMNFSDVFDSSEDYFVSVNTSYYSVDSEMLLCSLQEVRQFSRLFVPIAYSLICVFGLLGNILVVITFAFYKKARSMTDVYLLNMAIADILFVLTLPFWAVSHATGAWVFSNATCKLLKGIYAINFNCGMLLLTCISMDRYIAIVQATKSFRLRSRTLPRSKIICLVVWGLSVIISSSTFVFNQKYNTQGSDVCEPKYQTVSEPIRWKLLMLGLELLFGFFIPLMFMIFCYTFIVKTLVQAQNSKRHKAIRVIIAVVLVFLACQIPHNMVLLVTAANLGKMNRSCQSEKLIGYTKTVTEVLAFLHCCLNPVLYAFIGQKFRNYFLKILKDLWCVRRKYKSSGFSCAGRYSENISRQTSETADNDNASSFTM
Kind of test: FLIPR assay (inhibition of CCL20-induced calcium signal). In kind it is cell-based. Particulars: HEK-293 cells expressing human CCR6; mean values where determined several times; read-out: FLIPR IC50. As to the method:
FLIPR assay: The bioactivity of compounds is tested in a fluorometric imaging plate reader (FLIPR: Molecular Devices) using engineered HEK-293 cells expressing the human CCR6 (GenBank: AY242126). Frozen cells are plated on Poly-L-Lysine precoated 384-well plates 2 days prior to bioassay in DMEM medium supplemented with 10% FCS and 1% Penicillin-Streptomycin. […] This buffer, but lacking the dye, is also used for washing and compound dilution steps (assay buffer). Cells are washed free of excess dye with a wash-station (Biotek), leaving 40 microliter of assay buffer at the end. Cells were incubated for 15 minutes at room temperature in the dark, before adding compounds. Stock solutions of test compounds are made up at a concentration of 10 mM in DMSO, and serially diluted first in DMSO and then transferred in assay buffer to concentrations required for inhibition dose response curves. After a 45-minute incubation period in assay buffer at room temperature, 10 microliters of each compound dilution are transferred from a compound plate to the plate containing the recombinant cells in the FLIPR instrument according to the manufacturer's instructions. After cells and compounds were preincubated for 30 minutes at room temperature in the dark, 10 microliter agonist CCL20 (Peprotech) at a final concentration of 10 nM is added, again using the FLIPR instrument. Changes in fluorescence are monitored before and after addition of the test compounds and agonist. Emission peak values above base level after CCL20 addition are exported after base line subtraction.
The calculated IC50 values may fluctuate depending on the daily assay performance. Fluctuations of this kind are known to those skilled in the art.
For `CC1([C@](O)(c2ccc(OC(F)(F)F)cc2)c2cncc(N3CCCC3)c2)CN(CCF)C1` [Example 10, (R)-[1-(2-Fluoro-ethyl)-3-methyl-azetidin-3-yl]-(5-pyrrolidin-1-yl-pyridin-3-yl)-(4-trifluoromethoxy-phenyl)-methanol], the pIC50 was 7.19.

Consider `CC1([C@](O)(c2ccc(OC(F)(F)F)cc2)c2cncc(N3CCCC3)c2)CN(CC(F)F)C1` [Example 11, (R)-[1-(2,2-Difluoro-ethyl)-3-methyl-azetidin-3-yl]-(5-pyrrolidin-1-yl-pyridin-3-yl)-(4-trifluoromethoxy-phenyl)-methanol], for which the pIC50 is 6.89.

On to `CC(C)(C)N1CC(C)([C@](O)(c2ccc(OC(F)(F)F)cc2)c2cncc(N3CCCC3)c2)C1` [Example 12, (R)-(1-tert-Butyl-3-methyl-azetidin-3-yl)-(5-pyrrolidin-1-yl-pyridin-3-yl)-(4-trifluoromethoxy-phenyl)-methanol], for which the pIC50 was 7.13.

For the compound `COCC#Cc1cncc(C(O)(c2ccc(C(C)C)cc2)C2(C)CN(C)C2)c1` (stereo not drawn) [Example 13, (1,3-Dimethyl-azetidin-3-yl)-(4-isopropyl-phenyl)-[5-(3-methoxy-prop-1-ynyl)-pyridin-3-yl]-methanol], the pIC50 is 7.36.

As to `CC(C)c1ccc([C@](O)(c2cncc(CC#CO)c2)C2(C)CN(C)C2)cc1` [Example 14, 3-{5-[(R)-(1,3-Dimethyl-azetidin-3-yl)-hydroxy-(4-isopropyl-phenyl)-methyl]-pyridin-3-yl}-prop-1-yn-1-ol], the pIC50 is 7.15.

For `CC(C)c1ccc([C@](O)(c2cncc(C#CC(C)(C)O)c2)C2(C)CN(C)C2)cc1` [Example 15, 4-{5-[(R)-(1,3-Dimethyl-azetidin-3-yl)-hydroxy-(4-isopropyl-phenyl)-methyl]-pyridin-3-yl}-2-methyl-but-3-yn-2-ol], the pIC50 is 7.09.

Take `CC(C)c1ccc([C@](O)(c2cncc(C#C[C@@H](C)O)c2)C2(C)CN(C)C2)cc1` [Example 16]: the pIC50 is 7.28.

In the case of `CC(C)c1ccc([C@](O)(c2cncc(C#C[C@H](C)O)c2)C2(C)CN(C)C2)cc1` [Example 17], the pIC50 is 7.27.

With `CC(C)c1ccc([C@](O)(c2cncc(C#CC3(O)CCCC3)c2)C2(C)CN(C)C2)cc1` [Example 18], the pIC50 is 7.47.

As to `CC(C)c1ccc([C@](O)(c2cncc(C#CC3(O)CC3)c2)C2(C)CN(C)C2)cc1` [Example 19], the pIC50 was 7.35.

On to `CC(C)c1ccc([C@](O)(c2cncc(C#CC3(O)CN(C(=O)OC(C)(C)C)C3)c2)C2(C)CN(C)C2)cc1` [Example 20], for which the pIC50 was 7.64.

Consider `CC(C)c1ccc([C@](O)(c2cncc(C#CC3(O)CCC3)c2)C2(C)CN(C)C2)cc1` [Example 21], for which the negative-log IC50 (pIC50) was 7.32.

Turning to `CC(C)c1ccc([C@](O)(c2cncc(C#CCCO)c2)C2(C)CN(C)C2)cc1` [Example 22], the pIC50 was 6.90.

As to `CC(C)c1ccc([C@](O)(c2cncc(C#Cc3cnn(C)c3)c2)C2(C)CN(C)C2)cc1` [Example 23], the pIC50 was 7.33.

Consider `CC(C)c1ccc([C@](O)(c2cncc(C#CC(O)c3ccccc3)c2)C2(C)CN(C)C2)cc1` (stereo partly drawn) [Example 24], for which the pIC50 was 8.19.

For the compound `CC(C)c1ccc([C@](O)(c2cncc(C#CC(C)(O)c3ccccc3)c2)C2(C)CN(C)C2)cc1` (stereo partly drawn) [Example 25], the pIC50 is 8.11.

As for `CC(C)c1ccc([C@](O)(c2cncc(C#CC(O)C(C)C)c2)C2(C)CN(C)C2)cc1` (stereo partly drawn) [Example 26], the pIC50 was 7.89.

For the compound `CC(C)c1ccc([C@](O)(c2cncc(C#CC3(O)CCOCC3)c2)C2(C)CN(C)C2)cc1` [Example 27], the pIC50 is 7.36.

Regarding `CC(C)c1ccc([C@](O)(c2cncc(C#CC(O)C3CCOCC3)c2)C2(C)CN(C)C2)cc1` (stereo partly drawn) [Example 28], the pIC50 is 7.35.

In the case of `Cc1nn(C)cc1C(O)C#Cc1cncc([C@@](O)(c2ccc(C(C)C)cc2)C2(C)CN(C)C2)c1` (stereo partly drawn) [Example 29], the pIC50 was 7.07.

For `CC(C)c1ccc([C@](O)(c2cncc(C#CC3CCOCC3)c2)C2(C)CN(C)C2)cc1` [Example 30], the pIC50 is 7.47.

As for `Cc1nc(C(O)C#Cc2cncc([C@@](O)(c3ccc(C(C)C)cc3)C3(C)CN(C)C3)c2)cs1` (stereo partly drawn) [Example 31], the pIC50 was 7.09.

As to `CC(C)c1ccc([C@](O)(c2cncc(C#CC(C)(O)c3cccc(F)c3)c2)C2(C)CN(C)C2)cc1` (stereo partly drawn) [Example 32], the negative logarithm of the IC50 (pIC50) is 7.73.

For `COc1ccc(C(C)(O)C#Cc2cncc([C@@](O)(c3ccc(C(C)C)cc3)C3(C)CN(C)C3)c2)cc1` (stereo partly drawn) [Example 33], the pIC50 was 7.68.

With `COc1ccccc1C(C)(O)C#Cc1cncc([C@@](O)(c2ccc(C(C)C)cc2)C2(C)CN(C)C2)c1` (stereo partly drawn) [Example 34], the pIC50 is 7.68.

On to `CC(C)c1ccc([C@](O)(c2cncc(C#CC(C)(O)c3ccn(C)n3)c2)C2(C)CN(C)C2)cc1` (stereo partly drawn) [Example 35], for which the pIC50 is 6.85.

Turning to `Cc1nc(C(C)(O)C#Cc2cncc([C@@](O)(c3ccc(C(C)C)cc3)C3(C)CN(C)C3)c2)cs1` (stereo partly drawn) [Example 36], the pIC50 was 7.21.

Take `COc1cccc(C(C)(O)C#Cc2cncc([C@@](O)(c3ccc(C(C)C)cc3)C3(C)CN(C)C3)c2)n1` (stereo partly drawn) [Example 37]: the pIC50 was 7.68.

On to `CC(C)c1ccc([C@](O)(c2cncc(C#CC(C)(O)c3ncccn3)c2)C2(C)CN(C)C2)cc1` (stereo partly drawn) [Example 38], for which the pIC50 was 6.89.

On to `Cc1cc(C(C)(O)C#Cc2cncc([C@@](O)(c3ccc(C(C)C)cc3)C3(C)CN(C)C3)c2)nn1C` (stereo partly drawn) [Example 39], for which the pIC50 was 7.12.

As for `Cc1cc(C(C)(O)C#Cc2cncc(C(O)(c3ccc(C(C)C)cc3)C3(C)CN(C)C3)c2)ncn1` (stereo not drawn) [Example 40], the negative logarithm of the IC50 (pIC50) is 7.03.

Regarding `Cc1cc(C(O)C#Cc2cncc([C@@](O)(c3ccc(C(C)C)cc3)C3(C)CN(C)C3)c2)nn1C` (stereo partly drawn) [Example 41], the pIC50 was 6.88.

As to `CC(C)c1ccc([C@](O)(c2cncc(C#CC3(O)CCCc4cccnc43)c2)C2(C)CN(C)C2)cc1` (stereo partly drawn) [Example 42], the pIC50 was 7.38.

As to `CC(C)c1ccc([C@](O)(c2cncc(C#CC3(O)CCc4cccnc43)c2)C2(C)CN(C)C2)cc1` (stereo partly drawn) [Example 43], the pIC50 was 7.25.

As for `CCC(O)(C#Cc1cncc([C@@](O)(c2ccc(C(C)C)cc2)C2(C)CN(C)C2)c1)c1ccccn1` (stereo partly drawn) [Example 44], the pIC50 was 7.20.

As for `CCC(O)(C#Cc1cncc([C@@](O)(c2ccc(C(C)C)cc2)C2(C)CN(C)C2)c1)c1cccc(OC)n1` (stereo partly drawn) [Example 45], the pIC50 is 7.48.

On to `CC(C)C(=O)N1CC(O)(C#Cc2cncc([C@@](O)(c3ccc(C(C)C)cc3)C3(C)CN(C)C3)c2)C1` [Example 46], for which the pIC50 is 6.84.

With `CC(C)c1ccc([C@](O)(c2cncc(C#Cc3cc4ccccc4[nH]3)c2)C2(C)CN(C)C2)cc1` [Example 47, (R)-(1,3-Dimethyl-azetidin-3-yl)-[5-(1H-indol-2-ylethynyl)-pyridin-3-yl]-(4-isopropyl-phenyl)-methanol], the pIC50 was 7.46.

Consider `COCCCc1cncc(C(O)(c2ccc(C(C)C)cc2)C2(C)CN(C)C2)c1` (stereo not drawn) [Example 48, (1,3-Dimethyl-azetidin-3-yl)-(4-isopropyl-phenyl)-[5-(3-methoxy-propyl)-pyridin-3-yl]-methanol], for which the pIC50 is 7.00.

In the case of `CC(C)c1ccc([C@](O)(c2cncc(CCCO)c2)C2(C)CN(C)C2)cc1` [Example 49], the pIC50 was 6.66.

On to `CC(C)c1ccc([C@](O)(c2cncc(CCC(C)(C)O)c2)C2(C)CN(C)C2)cc1` [Example 50], for which the pIC50 was 7.04.

Turning to `CC(C)c1ccc([C@](O)(c2cncc(CC[C@H](C)O)c2)C2(C)CN(C)C2)cc1` [Example 51], the pIC50 was 6.87.

Turning to `CC(C)c1ccc([C@](O)(c2cncc(CC[C@@H](C)O)c2)C2(C)CN(C)C2)cc1` [Example 52], the pIC50 is 6.70.

For the compound `CC(C)c1ccc([C@](O)(c2cncc(CCC3(O)CCCC3)c2)C2(C)CN(C)C2)cc1` [Example 53], the pIC50 was 7.33.

`CC(C)c1ccc([C@](O)(c2cncc(CCC3(O)CC3)c2)C2(C)CN(C)C2)cc1` [Example 54]: the negative logarithm of the IC50 (pIC50) was 7.17.

As for `CC(C)c1ccc([C@](O)(c2cncc(CCC3(O)CN(C(=O)OC(C)(C)C)C3)c2)C2(C)CN(C)C2)cc1` [Example 55], the pIC50 was 7.18.

`CC(C)c1ccc([C@](O)(c2cncc(CCC3(O)CCC3)c2)C2(C)CN(C)C2)cc1` [Example 56]: the pIC50 was 7.21.

Take `CC(C)c1ccc([C@](O)(c2cncc(CCCCO)c2)C2(C)CN(C)C2)cc1` [Example 57]: the pIC50 is 6.46.

What is called pIC50 is −log10 of the IC50, conventionally taken in molar units.
